Reference: article PMC4748848, “Pharmacokinetic/Toxicity Properties of the New Anti-Staphylococcal Lead Compound SK-03-92” (Antibiotics, 2015)
Converted amounts (≈) assume the structure as drawn. “And” between values parts separate entries of the source, which are not always exact repeats. Equal entries are not always repeated. “Also recorded” adds a separate entry of the source. Where two headings read alike, the source gives them in different places.

Columns and labels:
[1] = Solubility in vehicles by HPLC; assay type: physicochemical; conditions: for solubility: HPLC
Protocol: An HPLC method was developed on a Halo C18 4.6 × […], 2.7 μm column (MAC-MOD Analytical Inc., Chadds Ford, PA, USA) for the detection and quantitation of SK-03-92. The method was developed using the information obtained from a scouting gradient of 5%–100% acetonitrile over 35 min. A UV spectrum of SK-03-92 was obtained from the scouting gradient and the observed maximum for SK-03-92 was 335 nm, with a local maximum of 224 nm also observed. The 335 nm maximum wavelength was used for the quantitation of SK-03-92, and the 224 nm local maximum wavelength was used to monitor for possible formation of degradation products not visible at the 335 nm wavelength. Flow rate was 0.750 mL/min and injection volume was 10 μL. The mobile phase was 62% acetonitrile (Fisher, Hanover Park, IL, USA):38% water (Milli-Q UV plus) and the isocratic program was 62% acetonitrile:38% water for 20 min. Acquisition time was 10 min and room temperature retention time was 5.4 min. Standards of SK-03-92 were prepared in acetonitrile at concentrations of 0.05–0.005 mg/mL.

murine monocytic J774A.1 = assay: MTT cytotoxicity assay, J774A.1; assay type: cell-based; conditions: Mus musculus, J774.A1; J774A.1 cells
Protocol: (§1) Initial in vitro safety testing of SK-03-92 was performed with an MTT [3-(4,5-dimethylthiazol-2-yl)-2,5-diphenyltetrazolium bromide] assay (9, American Type Culture Collection) for several tissue culture cell lines (murine monocytic J774A.1, human monocytic U937, human kidney epithelial 293, and human bladder epithelial T24) using mitomycin C (Sigma, St. Louis, MO, USA) and DMSO alone as positive and negative controls, respectively. Assays were done a total of three times per tissue culture cell line.

human monocytic U937 = assay: MTT cytotoxicity assay, U937; assay type: cell-based; conditions: U-937, U937 cells
Protocol: as §1

[2] = system: human kidney epithelial 293; assay: MTT cytotoxicity assay, 293; assay type: cell-based; conditions: cell line printed as 292
Protocol: as §1

[3] = system: human bladder epithelial T24; assay: MTT cytotoxicity assay, T24; assay type: cell-based; conditions: T-24, T24 cells
Protocol: as §1

[4] = system: several mammalian cell lines; assay: MTT cytotoxicity, cell lines overall and therapeutic index; assay type: cell-based; conditions: read-out: IC50 in vitro
Protocol: as §1

Swiss Webster mice = assay: Initial safety testing in mice, escalating ip dosing (OECD); assay type: in vivo
Protocol: Three female 5–9 week old Swiss Webster mice (Harlan) per drug concentration were injected intraperitoneally (ip) with increasing concentrations of SK-03-92: 5, 50, 300, and 2000 mg/kg according to OECD [10]. The lowest concentration of drug was used first. Overt toxicity (e.g., altered gait, ungroomed, significant weight loss) was monitored.

Single dose PK assay, ip = assay type: in vivo, BALB/c mice; conditions: mice
Protocol: An initial single dose PK experiment was performed using 100 μg/g of formulated SK-03-92 administered ip to twenty-one female, 5–6 week old BALB/c mice (7 per cohort for 3 cohorts, NCI) under parameters established previously. Three animals were used as a control group and received blank vehicle, whereas three mice per time point received 100 μg/g SK-03-92 ip and were sacrificed with blood collected at the 15, 30, 45, 60, 75, and 90 min time points by warming the tails of the mice in warm water, lancing the lateral saphenous tail vein, and collecting the blood (up to 150 μL) into microvette tubes (Sarstedt) containing EDTA or terminal bleed into vacucontainers containing EDTA as an anti-coagulant. Plasma was separated from packed blood cells by centrifugation (600× g) and stored at −70 °C until needed for HPLC analysis. Samples were analyzed with a Shimadzu Prominence HPLC system (Kyoto, Japan) with a Halo C18 column (MAC-MOD Analytical Inc., Chadds Ford, PA, USA). A mobile phase of 62% acetonitrile/38% water, isocratic program of 62% acetonitrile for 20 min, and flow rate of 0.75 mL/min with an injection volume of 10 μL and a retention time of 5.4 min were used. The standard curve for SK-03-92 was linear from 0.0098 to 2.5 μg/mL in plasma. Each chromatogram was collected and integrated to estimate the peak area of analyte by EZ Chrom® software (version.1.0, Agilent Technologies Inc., Santa Clara, CA, USA). The ratio of peak area of SK-03-92 was calculated to estimate the drug concentration(s) using a pre-built calibration curve. Major pharmacokinetic parameters were calculated using the noncompartmental analysis module of WinNonlin® (version 5.1, Pharsight Corp., Princeton, NJ, USA) under sparsely sampling mode.

[5] = Relative bioavailability / single dose PK, oral; assay type: in vivo, BALB/c mice; conditions: mice
[6] = Five-day multi-dose oral PK study; assay type: in vivo; conditions: female, BALB/c, mouse, plasma, mice, five-day oral 100 μg/g each day
Protocol: (§2) First, a five-day PK study with SK-03-92 orally administered to female 5-6 week old BALB/c mice was conducted. Three mice received 300 μL of blank vehicle by oral administration. Doses of 100 μg/g SK-03-92 were given orally each day in the vehicle. Blood was collected from three mice at time points 15, 30, 45, 60, 75, and 90 min after administration. Body weight was monitored every day before SK-03-92 administration. Plasma was prepared and stored at −70 °C until analyzed by HPLC. In an extension of this PK study to two-weeks following oral administration of SK-03-92, six mice were dosed in the test (SK-03-92) arm and six vehicle control mice in the other arm. Lastly, a multi-dosing PK analysis was done using two 51-μg/g doses of SK-03-92 per day (given four hours apart) over the course of three days in five mice.

[7] = Two-week multi-dose oral PK study; assay type: in vivo
Protocol: as §2

[8] = Multi-dosing PK, two doses per day for three days; assay type: in vivo; conditions: mice
Protocol: as §2

plasma proteins = assay: Plasma protein binding assay; assay type: in vitro ADME, mice; conditions: mouse plasma; read-out: bound to plasma proteins (converted)
Protocol: Plasma collected from EDTA treated blood from six SK-03-92 dosed mice was added to methyl tert-butyl ether (MTBE) to precipitate the proteins. The precipitated proteins were separated from the remainder of the plasma by centrifugation (14,000× g for 20 min) through a Microcon 10K filter (Millipore) and dried under a stream of nitrogen gas. The dried product was suspended in 62% acetonitrile/38% ddH2O and the AUC was quantified and correlated with the initial concentration of SK-03-92 present in the plasma.

[9] = system: S. aureus (including MRSA and VISA strains); set-up: method as in PMID 21739106; conditions: cited from earlier work
mice, rats, and humans = conditions: cited from earlier work
[10] = cited from earlier work

Structure (SMILES): COc1cc(O)cc(/C=C/c2cc3ccccc3s2)c1 [SK-03-92, (E)-3-(2-(benzo[b]thiophen-2-yl)vinyl)-5-methoxyphenol]
- solubility with Solutol HS 15/PBS solution ([1]; Solutol HS 15/PBS solution): less than 10%
- solubility ([1]; aqueous buffer, PBS, read-out: Solubility in PBS): < 0.1 µg/mL
- solubility ([1]; aqueous with cosolvent or surfactant or cyclodextrin, 20% Solutol HS 15/80% PBS, read-out: Solubility in 20% Solutol HS 15/80% PBS): 4600 µg/mL (≈ 16300 µM)
- solubility ([1]; organic solvent or mixture, PEG 400, read-out: Solubility in PEG 400): 9200 µg/mL (≈ 32600 µM)
- IC50 (murine monocytic J774A.1): 125 µg/mL (≈ 443 µM)
- IC50 (human monocytic U937): 125 µg/mL (≈ 443 µM)
- IC50 [2]: 125 µg/mL (≈ 443 µM)
- IC50 [3]: 125 µg/mL (≈ 443 µM)
- IC50 [4]: 125 µg/mL (≈ 443 µM)
- adverse effects / overt toxicity after single dose (Swiss Webster mice; 2000 mg/kg IP single dose, two-week time frame, 2000 mg/kg): non-toxic; also recorded: did not exhibit gross toxicity
- overt toxicity after repeat dose (Swiss Webster mice; repeat dose of 2000 mg/kg a week after initial 2000 mg/kg): no overt toxicity was observed
- concentration at 30 min (Single dose PK assay, ip; female, BALB/c, mouse, plasma, 100 μg/g, 30 min after ip injection): 1640 ng/mL
- concentration at 90 min (Single dose PK assay, ip; female, BALB/c, mouse, plasma, 100 μg/g, within 90 min of ip injection): 149 ng/mL
- half-life (Single dose PK assay, ip; female, BALB/c, mouse, plasma, intraperitoneal, oral, 100 μg/g, single dose 100 μg/g, route not given, read-out: drug half-life): 20 to 30 min
- half-life (Single dose PK assay, ip; female, BALB/c, mouse, plasma, ip, 100 μg/g, ip, single dose 100 μg/g, read-out: Half-Life): 22 min
- Tmax (Single dose PK assay, ip; female, BALB/c, mouse, plasma, ip, single dose 100 μg/g): 30 min
- AUC(0-inf) (Single dose PK assay, ip; female, BALB/c, mouse, plasma, ip, single dose 100 μg/g, read-out: AUCINF_obs (converted)): 1170 ng·h/mL
- Cmax (Single dose PK assay, ip; female, BALB/c, mouse, ip, single dose 100 μg/g, plasma): 1640 ± 590 ng/mL
- time to breakdown into metabolic byproducts (Single dose PK assay, ip; after ip or oral delivery): ≤ 15 min
- Cl_F_obs (Single dose PK assay, ip; ip, single dose 100 μg/g): 1.46 mL/min/g and 1.46 ± 0.26 mL/min/g
- Vz_F_obs (Single dose PK assay, ip; ip, single dose 100 μg/g): 47.71 mL/g and 47.71 ± 33.25 mL/g
- half-life (Single dose PK assay, ip; ip, single dose 100 μg/g): 22.46 ± 17.81 min
- overt toxicity (Single dose PK assay, ip; single dose 100 μg/g ip): no overt toxicity
- time at which peak plasma concentration was achieved (Single dose PK assay, ip; single dose 100 μg/g, route not given): 20 to 30 min
- half-life ([5]; female, BALB/c, mouse, plasma, po, 100 μg/g, oral, single dose 100 μg/g, read-out: Half-Life): 30 min
- Tmax ([5]; female, BALB/c, mouse, plasma, po, 100 μg/g, oral, single dose 100 μg/g, read-out: Tmax (converted)): 22 min
- concentration at 15 min ([5]; female, BALB/c, mouse, plasma, 100 μg/g oral, after 15 min, read-out: level detected in mouse plasma): 740 ng/g
- concentration at 30 min ([5]; female, BALB/c, mouse, plasma, 100 μg/g oral, by 30 min, read-out: level detected in mouse plasma): 126 ng/g
- AUC(0-inf) ([5]; female, BALB/c, mouse, plasma, oral, single dose 100 μg/g, read-out: AUCINF_obs (converted)): 85.7 ng·h/mL
- Cmax ([5]; female, BALB/c, mouse, po, 100 μg/g, orally administered, plasma): 370 ng/mL
- toxicity signs ([5]; 100 μg/g oral): no toxicity signs were observed
- plasma concentrations ([5]; 75 min after oral gavage): negligible levels
- oral Cmax relative to Cmax of ip-administered drug ([5]; oral vs ip): approximately 25%
- Cl_F_obs ([5]; oral, single dose 100 μg/g): 21.00 ± 6.71 mL/min/g
- Tmax ([5]; oral, single dose 100 μg/g): 21.43 ± 11.80 min
- Vz_F_obs ([5]; oral, single dose 100 μg/g): 810.67 ± 173.87 mL/g
- half-life ([5]; oral, single dose 100 μg/g): 30.40 ± 17.81 min
- concentration at 15 min ([6]; after 15 min): 86 ng/mL
- concentration at 75 min ([6]; after 75 min): 27 ng/mL
- concentration at 15 min ([7]; BALB/c, mouse, plasma, 100 μg/g, mice, two-week oral administration, after 15 min): 144 ng/mL
- concentration at 75 min ([7]; BALB/c, mouse, plasma, 100 μg/g, mice, two-week oral administration, after 75 min): 10 ng/mL
- weight loss of treated mice ([7]; multi-dose oral, after two-days): about 1.5%
- weight increase of treated mice ([7]; multi-dose oral, day 9): 5.16%
- weight increase of treated mice ([7]; multi-dose oral, day 12): 9.75%
- gross adverse effects ([8]; multi-dose analysis): no gross adverse effects
- maximum plasma concentration ([8]; two 51-μg/g doses per day four hours apart for three days): 2.12 µg/mL
- fraction unbound (plasma proteins): 0.156
- MIC50 [9]: 1 µg/mL (≈ 3.54 µM)
- MIC90 [9]: 2 µg/mL (≈ 7.08 µM)

Structure (SMILES): Oc1ccc(/C=C/c2cc(O)cc(O)c2)cc1 [resveratrol]
- toxicity at high doses (mice, rats, and humans; in vivo): non-toxic
- half-lives in animal plasma ([10]; in vivo): 15 to 60 min

Structure (SMILES): COc1cc(/C=C/c2ccc(O)cc2)cc(OC)c1 [pterostilbene]
- toxicity at high doses (mice, rats, and humans; mice, rats, and humans): non-toxic
- half-lives in animal plasma ([10]; animal plasma): 120 min
- plasma concentrations ([10]; animals): < 8000 ng/mL
